Consider two molecules from publication PMC3331929 (Antiviral Research, 2012).

Read-outs that look alike come from different tables or passages of the source.

What all share (type): biochemical
The target of test [1] is T1, WNV NS2B/NS3pro (West Nile virus, UniProt Q9Q6P4). As to the kind of experiment: In vitro protease assay, percent inhibition at a fixed inhibitor concentration. The conditions noted are these: aprotinin as positive control, final concentration 2–10 μM.
Test [2] has as its target T1, WNV NS2B/NS3pro. As to conditions: read-out: IC50 (μM) b; tetra-peptide substrate Bz-Nle-KRR-AMC.
Test [3] deals with T1, WNV NS2B/NS3pro. As to conditions: read-out: IC50 (μM) a; tri-peptide substrate Boc-GKR-AMC, inhibitor 0–40 μM.

T1 sequence (Q9Q6P4 1506-1683): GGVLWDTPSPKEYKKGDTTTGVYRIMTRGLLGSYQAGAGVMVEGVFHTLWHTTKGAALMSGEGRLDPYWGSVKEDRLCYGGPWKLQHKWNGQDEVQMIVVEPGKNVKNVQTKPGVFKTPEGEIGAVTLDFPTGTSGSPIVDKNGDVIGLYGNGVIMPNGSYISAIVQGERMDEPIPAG
T1 sequence (Q9Q6P4 1428-1467): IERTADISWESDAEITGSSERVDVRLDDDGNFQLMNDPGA

As to aprotinin, in test [1], the “inhibition of WNV NS2B-NS3pro, positive control” value is reported as 100%.

With `Oc1c(C(Nc2nccs2)c2ccccc2)ccc2cccnc12` (stereo not drawn) [compound 23], the results for the concentration for half-maximal inhibition (IC50) in test [2] and in test [3] were 12.9 ± 0.54 µM and 9.85 ± 0.34 µM, respectively.

Usually IC50 stands for the midpoint of a concentration-inhibition curve.
